{
  "source": "paper PMC12009420",
  "about": "“Dynamically chiral phosphonic acid-type metallo-β-lactamase inhibitors” (Communications Chemistry, 2025)",
  "key": {"VIM-2": {"molecular_target": "VIM-2 (Escherichia coli, UniProt Q5U7L7)", "test": "Enzyme steady state kinetic studies (inhibitor 5g and VIM-2)", "format": "biochemical", "conditions": "for Ki / Vmax: nitrocefin", "protocol": "Enzyme steady state kinetic studies were performed to determine the mechanism of inhibition using inhibitor 5g and VIM-2 (Section 7, Supplementary Information). […] Assays were conducted in triplicates on a 96 well plate. Absorbance was measured at 482 nm using a SpectraMax 190 plate reader. Solutions of 300 μL consisting of buffer, purified enzyme (0.3 nM VIM-2), inhibitor 5g and reporter substrate nitrocefin with final 2.5% DMSO were incubated in triplicates on a 96 well plate for 5 min at 30 °C. Buffer solution consisted of 50 mM HEPES pH 7.2, 50 μM ZnSO4 and 0.4 mg/ml bovine serum albumin.\n7. Enzyme kinetic studies\nEnzyme steady state kinetic studies were performed to determine the mechanism of inhibition using inhibitor 5g and VIM-2. Km’, Ki and Vmax values were determined (Table S6).\nFor data analysis, SimFit software was used to fit the initial reaction velocities (v₀) to a Michaelis-Menten (1:1) model (Figure S40a). […]\nTable S6. Kinetic parameters (Km’, Ki and vmax values) of inhibitor 5g against VIM-2 using nitrocefin as reporter substrate.\nFigure S40. a, Michaelis-Menten fitting of the substrate concentration dependence of initial reaction velocities. b, Double reciprocal plot of the data in a, for VIM-2 in the absence and presence of inhibitor 5g at two concentrations (36 μM and 72 μM) using nitrocefin as substrate. [I] is the concentration of inhibitor 5g."}, "GIM-1 [1]": {"molecular_target": "T1, GIM-1 (Pseudomonas aeruginosa, UniProt Q704V1)", "T1 sequence (Q704V1 entry or part of it)": "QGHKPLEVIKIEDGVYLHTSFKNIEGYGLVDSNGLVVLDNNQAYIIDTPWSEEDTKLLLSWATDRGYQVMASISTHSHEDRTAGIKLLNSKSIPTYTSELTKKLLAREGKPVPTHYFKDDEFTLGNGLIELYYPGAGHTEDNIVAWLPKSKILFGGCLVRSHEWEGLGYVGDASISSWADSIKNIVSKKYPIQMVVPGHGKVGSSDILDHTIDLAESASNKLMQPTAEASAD", "test": "Enzymatic metallo-β-lactamase assay on purified GIM-1", "format": "biochemical", "conditions": "approximated from Dixon plots (1/v vs [I]) at one constant substrate concentration; ± SE; read-out: Estimated inhibition constant Ki GIM-1"}, "GIM-1 [2]": {"molecular_target": "T1, GIM-1", "test": "Enzymatic metallo-β-lactamase assay on purified GIM-1", "format": "biochemical", "protocol": "A few inhibitors were tested up to 1600 μM to ensure nearly complete inhibition. Solutions of 100 μL consisting of buffer, purified enzyme (1 nM for GIM-1 and VIM-2, 5 nM for NDM-1), inhibitor and reporter substrate nitrocefin (15 μM for VIM-2, 2 μM for GIM-1) or imipenem (30 μM for NDM-1) were incubated in triplicates on a 96 well plate for 5 min at 25 °C. Buffer solution consisted of 50 mM HEPES pH 7.2, 50 μM ZnSO4 and 0.4 mg/ml bovine serum albumine. Inhibitors were dissolved in DMSO but diluted to assure <2% DMSO in measured assay. Absorbance was measured at 482 nm (nitrocefin) and 300 nm (imipenem) on a SpectraMax M4 spectrophotometer. The initial velocity at each inhibitor concentration was analyzed in GraphPad Prism v9.3.1 and fitted to dose-response curves by non-linear regression (log [inhibitor] vs response) used to calculate IC50 (Supplementary Tables S2–5)."}, "MTT cytotoxicity assay": {"test": "MTT cytotoxicity assay", "format": "cell-based", "conditions": "human, HepG2 cells", "protocol": "Cytotoxic activity of the compounds was measured through the MTT colorimetric assay as previously described[60] using the Colorimetric (MTT) Kit for Cell Survival and Proliferation (Merck/Millipore; Darmstadt, Germany). HepG2 cells (human hepatocellular carcinoma cell line) were kept in penicillin/streptomycin-free medium overnight and then they were treated with the compounds for 24 h. Subsequently, the MTT reagent was added to the cells and after 3 h of incubation, MTT-derived formazan crystals were solubilized in acidified isopropanol (0.1 mL isopropanol with 0.04 N HCl). Absorbance was measured with multiscan spectrophotometer (Thermo Fisher Scientific) at 530 nm test and 630 nm reference wavelengths. Cell viability was expressed as the percentage of viable, untreated cells. CC50 values were determined with GraphPad Prism software (v9.3.1) and adjusted to dose-response curves by non-linear regression (Supplementary Table S7).\n8. Cytotoxocity against HepG2 cells\nTable S7. CC50 values and viability curves of metallo-β-lactamase inhibitors tested on HepG2 […]\ncells. […]\nrange. Data are shown as % via bility values ± SEM (n=4). Calculations were done using […]\nInhibitors CC50 (μM) HepG2 […]"}},
  "note": "Like-named read-outs stand apart in the source and are kept apart here.",
  "data": [
    {"compound": "O=C(NC(c1ccccc1O)P(=O)(O)O)c1scc2c1CCCC2", "note": "(centres unmarked) [5g]", "values": [
      {"measurement": "Ki", "setting": "VIM-2; Michaelis-Menten fit and Lineweaver-Burk plot, 30 °C", "value": "36 ± 3.3", "unit": "µM"},
      {"measurement": "Ki", "setting": "VIM-2; [I] 36 μM", "value": 31.3, "unit": "µM"},
      {"measurement": "Ki", "setting": "VIM-2; [I] 72 μM", "value": 40.7, "unit": "µM"},
      {"measurement": "inhibition mode", "setting": "VIM-2; Michaelis-Menten model and Lineweaver-Burk plot", "value": "competitive inhibition"},
      {"measurement": "Vmax", "setting": "VIM-2; [I] 36 μM", "value": "50.0 ΔA/min"},
      {"measurement": "Vmax", "setting": "VIM-2; [I] 72 μM", "value": "47.0 ΔA/min"},
      {"measurement": "Ki", "setting": "GIM-1 [1]", "value": "113 ± 66", "unit": "µM"},
      {"measurement": "logIC50 GIM-1", "setting": "GIM-1 [2]; log of IC50, ± SEM of logIC50", "value": "1.33 ± 0.11", "unit": "μM"},
      {"measurement": "IC50", "setting": "GIM-1 [2]; purified enzyme 1 nM, nitrocefin 2 μM, pH 7.2, 25 °C", "value": 21, "unit": "µM"},
      {"measurement": "CC50 at 24 h", "setting": "MTT cytotoxicity assay; HepG2, MTT, read-out: CC50 (in viability curve)", "value": 1400, "unit": "µM"},
      {"measurement": "CC50 at 24 h", "setting": "MTT cytotoxicity assay; MTT, 0.0025 mM - 1mM concentration range, read-out: Cytotoxicity CC50 HepG2", "value": 1420, "unit": "µM"}
    ]}
  ]
}
